According to ChEMBL document CHEMBL1155353, “Isatin derivatives, a novel class of transthyretin fibrillogenesis inhibitors” (Bioorg Med Chem Lett, 2009):
pIC50: −log10 of the molar value. Calls of active or inactive are those of the source. The rule behind the calls is not given here.

Columns and labels:
Transthyretin [1] = molecular target: T1, Transthyretin (Homo sapiens, UniProt P02766); test: Inhibition of TTR mediated fibrillogenesis assessed as acid-induced protein aggregation turbidity after 1.5 hrs by turbidimetric assay
Transthyretin [2] = molecular target: T1, Transthyretin; test: Inhibition of TTR mediated fibrillogenesis assessed as acid-induced protein aggregation turbidity after 1.5 hrs by turbidimetric assay relative to control; design: concentration or dose not given beside the values
Transthyretin [3] = molecular target: T1, Transthyretin; test: Displacement of [125I]thyroxin from TTR
Transthyretin [4] = molecular target: T1, Transthyretin; test: Inhibition of TTR mediated fibrillogenesis assessed as acid-induced protein aggregation turbidity at […] after 1.5 hrs by turbidimetric assay relative to control; design: scale not given: the % may be the effect or the level left
Transthyretin [5] = molecular target: T1, Transthyretin; test: Binding affinity to TTR at 40 uM by isothermal titration calorimetry

For Cc1ccc(/N=C2\C(=O)N(C)c3ccccc32)cc1, the pIC50 (Transthyretin [1]) was 5.20, the Activity (Transthyretin [2]) was 8.6% and the Activity (Transthyretin [3]) was “inactive”.
For O=C1Nc2ccc(I)cc2/C1=N/c1ccccc1, the pIC50 (Transthyretin [1]) was under 4.30, the Activity (Transthyretin [2]) was 1% and the Activity (Transthyretin [3]) was “inactive”.
For CN1C(=O)/C(=N\c2ccc([N+](=O)[O-])cc2)c2ccccc21, the pIC50 (Transthyretin [1]) was 5.20, the Activity (Transthyretin [2]) was 86% and the Activity (Transthyretin [3]) was “inactive”.
COc1ccc(/N=C2\C(=O)Nc3ccc([N+](=O)[O-])cc32)cc1 was tested, and the pIC50 (Transthyretin [1]) was under 4.30, the Activity (Transthyretin [2]) was 24% and the Activity (Transthyretin [3]) was “inactive”.
For CN1C(=O)/C(=N\c2ccccc2)c2ccccc21, the pIC50 (Transthyretin [1]) was 4.96, the Activity (Transthyretin [2]) was 77% and the Activity (Transthyretin [3]) was “inactive”.
In the case of Oc1c(I)cc(I)cc1I [TRIIODOPHENOL], the pIC50 (Transthyretin [1]) was 5.49, the Activity (Transthyretin [2]) was 80% and the Activity (Transthyretin [3]) was “inactive”.
With O=C1Nc2ccc(Br)cc2/C1=N/c1ccc(I)cc1 the pIC50 (Transthyretin [1]) was under 4.30, the Activity (Transthyretin [2]) was 16% and the Activity (Transthyretin [3]) was “inactive”.
In the case of O=C1Nc2ccccc2C1=O [ISATIN], the pIC50 (Transthyretin [1]) was under 4.30, the Activity (Transthyretin [3]) was “inactive” and the Activity (Transthyretin [4]) was 24%.
With Cc1ccc2c(c1)/C(=N/c1ccc(I)cc1)C(=O)N2 the pIC50 (Transthyretin [1]) was under 4.30, the Activity (Transthyretin [2]) was “inactive” and the Activity (Transthyretin [3]) was “inactive”. It also gave an Activity (Transthyretin [4]) of 7%.
In the case of COc1ccc(/N=C2\C(=O)N(C)c3ccccc32)cc1, the pIC50 (Transthyretin [1]) was 5.11, the Activity (Transthyretin [2]) was 81% and the Activity (Transthyretin [3]) was “inactive”.
CN1C(=O)C(=O)c2ccccc21 was tested, and the pIC50 (Transthyretin [1]) was 5.20, the Activity (Transthyretin [2]) was 100% and the Activity (Transthyretin [3]) was “inactive”.
With COc1ccc(/N=C2\C(=O)Nc3ccc(C)cc32)cc1 the pIC50 (Transthyretin [1]) was under 4.30, the Activity (Transthyretin [2]) was 32% and the Activity (Transthyretin [3]) was “inactive”.
O=C1Nc2ccc([N+](=O)[O-])cc2/C1=N/c1ccc(I)cc1 was tested, and the pIC50 (Transthyretin [1]) was under 4.30, the Activity (Transthyretin [2]) was 7% and the Activity (Transthyretin [3]) was “inactive”. The Activity (Transthyretin [4]) was 7%.
In the case of COc1ccc(/N=C2\C(=O)Nc3ccccc32)cc1, the Activity (Transthyretin [2]) was 100% and the Activity (Transthyretin [3]) was “inactive”.
N[C@@H](Cc1cc(I)c(Oc2cc(I)c(O)c(I)c2)c(I)c1)C(=O)O was tested, and the Activity (Transthyretin [2]) was 95% and the Activity (Transthyretin [3]) was “inactive”.
For COc1ccc(/N=C2/C(=O)Nc3ccccc32)cc1, the pIC50 (Transthyretin [1]) was 5.09.
With O=C1Nc2ccc(I)cc2/C1=N/c1ccc(I)cc1 the pIC50 (Transthyretin [1]) was under 4.30, the Activity (Transthyretin [2]) was 23% and the Activity (Transthyretin [3]) was “inactive”.
In the case of Cc1ccc(/N=C2\C(=O)Nc3ccccc32)cc1, the pIC50 (Transthyretin [1]) was under 4.30, the Activity (Transthyretin [3]) was “inactive” and the Activity (Transthyretin [4]) was 14%.
For COc1ccc(/N=C2\C(=O)Nc3ccc(Br)cc32)cc1, the pIC50 (Transthyretin [1]) was under 4.30, the Activity (Transthyretin [2]) was 48% and the Activity (Transthyretin [3]) was “inactive”.
For O=C1Nc2ccccc2/C1=N/c1ccc([N+](=O)[O-])cc1, the pIC50 (Transthyretin [1]) was 5.55, the Activity (Transthyretin [5]) was “inactive” and the Activity (Transthyretin [2]) was 90%. For the same molecule, the Activity (Transthyretin [3]) was “inactive”.
In the case of COc1ccc(/N=C2\C(=O)Nc3ccc(I)cc32)cc1, the pIC50 (Transthyretin [1]) was under 4.30, the Activity (Transthyretin [2]) was 42% and the Activity (Transthyretin [3]) was “inactive”.
For CN1C(=O)/C(=N\c2ccc(I)cc2)c2ccccc21, the pIC50 (Transthyretin [1]) was under 4.30, the Activity (Transthyretin [2]) was 0% and the Activity (Transthyretin [3]) was “inactive”.
O=C1Nc2ccccc2/C1=N/c1ccc(I)cc1 was tested, and the pIC50 (Transthyretin [1]) was under 4.30, the Activity (Transthyretin [2]) was 0% and the Activity (Transthyretin [3]) was “inactive”.
